Laboratory results: patent US9119821B2, “Use of methionine sulfoximine to treat acute liver failure and other diseases caused by an inflammatory cytokine response” (priority 2010, dated 2015)

Experiments:
[1] = tested on: CD1 mice treated with LPS/D-GalN; test: Survival of mice with LPS/D-GalN induced acute liver failure; type: in vivo, mouse; details: 890 mg/kg IP 3 hours prior to LPS/D-GalN
From the text: Six to eight week old CD1 mice are obtained from Charles River. Animals were housed in Wayne State University or University of Padova, Vallisneri Interdepartmental Complex animal quarters until the time of the experiment. Food was withdrawn the night before the day of the experiment. All experiments were approved by the Animal Investigation Committee of Wayne State University or by the Authority of the University of Padova and authorized by the Italian Ministry of Health.
Animals were divided into two groups. Group one animals consisted of both male and female mice injected with LPS and D-GalN to induce hepatic failure. Survival was monitored post LPS/D-GalN administration and the time of injection was considered to be zero hour (t=0). Group two animals consisted of mice injected with MSO three hours prior to LPS and D-GalN administration. […] […] For analysis of the effect of MSO treatment on the cell death pathway activated by the Fas ligand, mice were pre-treated with MSO as described above, and at time zero were injected with Jo2 antibody ([…]).
Animals were monitored continuously post LPS/D-GalN or Jo2 administration. […] The time of death was recorded as hours after LPS/D-GalN injection. Fisher's exact test was used to determine two-tailed p values for the statistical between the treated and untreated groups.

glutamine synthetase = molecular target: T1, glutamine synthetase (Mus musculus, UniProt P15105); test: Glutamine synthetase activity in liver extracts of treated mice; type: in vivo; details: 890 mg/kg IP 3 hours prior to LPS/D-GalN
T1 construct: liver homogenates were prepared from liver tissue excised and immediately homogenized; from tissue; host or cells: mouse liver homogenate supernatant
T1 sequence (P15105 2-373 limits assumed): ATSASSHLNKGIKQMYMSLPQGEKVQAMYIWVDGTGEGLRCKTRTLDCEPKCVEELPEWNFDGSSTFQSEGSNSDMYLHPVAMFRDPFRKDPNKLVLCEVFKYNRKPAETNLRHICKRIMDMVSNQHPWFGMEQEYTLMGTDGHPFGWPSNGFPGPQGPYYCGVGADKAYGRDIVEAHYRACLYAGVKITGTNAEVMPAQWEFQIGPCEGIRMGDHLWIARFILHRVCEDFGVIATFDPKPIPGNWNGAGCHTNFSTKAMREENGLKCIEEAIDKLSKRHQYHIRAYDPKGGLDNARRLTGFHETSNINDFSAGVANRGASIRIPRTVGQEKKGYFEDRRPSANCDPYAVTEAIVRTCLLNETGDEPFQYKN
Protocol: Tissue and plasma were collected from male mice, which were divided into two groups. One group was injected with saline three hours prior to LPS/D-GalN injections. The second group was given MSO three hours prior to being injected with LPS/D-GalN. Control mice (t=0) were treated with MSO or saline for 3 hours and then euthanized (not exposed to LPS/D-GalN). After LPS/D-GalN injection at time zero, tissue and plasma samples were collected at one-hour time intervals from 1 to 5 hours.
To analyze enzyme activities liver homogenates were prepared from liver tissue excised and immediately homogenized in ice-cold buffer consisting of 250 mM sucrose, 10 mM Tris and 0.1 mM EGTA with protease inhibitor cocktail (Sigma #P8340). The homogenized tissue was centrifuged at 2375×g for 5 min. The tissue supernatant fraction was frozen on dry ice and stored at −80° C.
Glutamine synthetase was assayed as described by Meister, A. Glutamine synthetase from mammalian tissues. […] The reaction with the substrates glutamine and hydroxylamine was stopped using ferric chloride stop solution (0.37 M FeCl3, 0.67 M HCl, 0.20 M TCA) and the colorimetric product formed—γ-glutamyl hydroxamate—was measured at 535 nm. The absorbance values were converted to activities by comparison to a standard curve of pure glutamyl hydroxamate (a generous gift from Arthur J. Cooper, Department of Biochemistry and Molecular Biology, New York Medical College).

MLP 29 cells = test: Flow cytometry of apoptosis induced by TNF-α plus actinomycin D; type: cell-based, mouse; details: 9 mM, one hour preincubation, then TNF-α plus actinomycin D for 10 hours
Protocol: Output of multiparametric FACS analyses. Mouse liver progenitor cells, MLP 29, are incubated for one hour with either no addition (first lane, FIG. 3C(a)), 9 mM MSO (second lane, FIG. 3C(b)), or 9 mM BSO (third lane, FIG. 3C(c)), then exposed for 10 hours to either no addition—(BAS, first column), TNF-α plus actinomycin D (second column), or actinomycin D alone (third column). Viable cells (V) are delimited by the quadrant. Apoptotic cells display mitochondrial depolarization (reduced TMRM staining) and/or expose phosphatidylserine on their surface (increased Annexin V-FITC staining). Propidium iodide-positive, i.e. dead cells (PI), are evaluated on a PI vs TMRM diagram (not shown); these cells are excluded from the reported plots, but the percentage of propidium iodide positive (i.e. dead) cells is shown in each box (PI), as is the percentage of viable cells (V);
Samples were analyzed on a FACSCalibur flow cytometer (Becton Dickinson, San Diego, Calif.). Data acquisition was performed using CellQuest software and data analysis with WinMD1 software. Each experiment was repeated at least four times.

GGCS = molecular target: T2, GGCS (Homo sapiens, UniProt P48506); details: known from the literature; cited from earlier work
T2 sequence (P48506 1-637): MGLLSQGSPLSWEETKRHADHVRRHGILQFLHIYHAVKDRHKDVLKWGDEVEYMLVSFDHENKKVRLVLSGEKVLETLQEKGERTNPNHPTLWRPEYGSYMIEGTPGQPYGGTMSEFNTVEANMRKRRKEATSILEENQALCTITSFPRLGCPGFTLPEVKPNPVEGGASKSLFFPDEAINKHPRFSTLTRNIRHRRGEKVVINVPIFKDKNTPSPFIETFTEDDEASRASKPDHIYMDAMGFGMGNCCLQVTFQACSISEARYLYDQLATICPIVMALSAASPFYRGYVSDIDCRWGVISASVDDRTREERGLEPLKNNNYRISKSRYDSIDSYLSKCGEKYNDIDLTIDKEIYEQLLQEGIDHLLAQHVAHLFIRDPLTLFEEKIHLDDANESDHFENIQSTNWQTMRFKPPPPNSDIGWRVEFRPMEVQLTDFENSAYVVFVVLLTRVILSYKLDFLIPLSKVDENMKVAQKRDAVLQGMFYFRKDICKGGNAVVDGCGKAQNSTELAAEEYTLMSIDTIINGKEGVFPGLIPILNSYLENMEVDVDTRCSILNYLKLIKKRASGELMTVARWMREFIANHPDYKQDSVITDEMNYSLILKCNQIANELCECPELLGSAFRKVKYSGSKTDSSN

## CCCCS(=N)(=O)CCC(N)C(=O)O (centres unmarked) [BSO, buthionine sulfoximine, reference compound]
[1]
  effect on survival of mice treated with LPS/D-GalN: no effect
[1]; 3 out of 20 treated mice survived
  survival: 15%
Glutamine synthetase
  effect on glutamine synthetase activities: no effect
MLP 29 cells
  rescue of cells from apoptosis induced by TNF-α: neither MSO nor BSO could rescue cells
GGCS
  inhibition of GGCS, effectiveness relative to MSO: 100 times
